According to publication PMC11243058, “Identification of Novel Isatin Derivative Bearing a Nitrofuran Moiety as Potent Multi-Isoform Aldehyde Dehydrogenase Inhibitor” (Molecules, 2024):
Read-outs that look alike come from different tables or passages of the source.

Key:
[1] = system: SKOV-3; assay: Cell viability assay (MTS), SKOV-3; format: cell-based, human; details: Homo sapiens, SK-OV-3, ovarian cancer cells, 48 h, mean ± SD
Protocol: (§1) Five thousand cells/well were plated in 96-well plates in growth media and left for attachment for 24 h. The cells were then treated with the respective compounds using varying concentrations for 48 h. At the end of the treatment duration, a solution of MTS [3-(4,5-dimethylthiazol-2-yl)-5-(3-carboxymethoxyphenyl)-2-(4-sulfophenyl)-2H-tetrazolium] and an electron coupling reagent, PES (phenazine ethosulfate) (Promega, Madison, WI, USA) was added to the cells. Then, 15 μL of MTS reagent was added to each well, and the absorbance was assessed at 490 nm with a microplate reader (Dynex Technologies, MRX Revelation; Chantilly, VA, USA) after 1 h incubation with MTS. The data were recorded, and the IC50 value was calculated using non-linear curve regression analysis (Graph pad V8.0, CA, USA).

[2] = system: MiaPaCa-2; assay: Cell viability assay (MTS), MiaPaCa-2; format: cell-based, human; details: Homo sapiens, MIA PaCa-2, pancreatic cancer cells, 48 h, mean ± SD
Protocol: as §1

[3] = system: HCT-116; assay: Cell viability assay (MTS), HCT-116; format: cell-based, human; details: Homo sapiens, HCT-116, colon cancer cells, 48 h, mean ± SD
Protocol: as §1

[4] = system: HEK-293; assay: Cell viability assay (MTS), HEK-293; format: cell-based; details: HEK293, human embryonic kidney cells, 48 h, mean ± SD
Protocol: as §1

[5] = system: FHC; assay: Cell viability assay (MTS), FHC; format: cell-based; details: FHC, normal fetal human cells, 48 h, mean ± SD
Protocol: as §1

[6] = target: T1, ALDH1A1 (Homo sapiens, UniProt P00352); assay: ALDH isoform-specific enzyme inhibition assay, ALDH1A1; format: biochemical; details: 500 nM, Acetaldehyde (Substrate)
T1 construct: purchased R&D systems
T1 sequence (P00352 1-501): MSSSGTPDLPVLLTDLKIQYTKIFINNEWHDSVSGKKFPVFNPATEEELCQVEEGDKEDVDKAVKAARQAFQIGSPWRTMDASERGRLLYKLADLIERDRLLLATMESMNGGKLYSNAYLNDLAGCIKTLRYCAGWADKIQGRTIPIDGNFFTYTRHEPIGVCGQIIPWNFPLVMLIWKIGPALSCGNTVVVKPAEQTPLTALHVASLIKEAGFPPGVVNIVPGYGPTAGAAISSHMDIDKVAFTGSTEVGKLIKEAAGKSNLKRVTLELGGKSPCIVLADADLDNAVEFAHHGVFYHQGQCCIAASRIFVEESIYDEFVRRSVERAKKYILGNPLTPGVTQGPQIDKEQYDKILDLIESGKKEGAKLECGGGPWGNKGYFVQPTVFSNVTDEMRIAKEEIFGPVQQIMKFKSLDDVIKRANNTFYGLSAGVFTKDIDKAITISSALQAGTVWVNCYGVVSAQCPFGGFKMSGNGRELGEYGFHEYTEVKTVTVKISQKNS
Protocol: (§2) ALDH1A1, ALDH3A1, and ALDH1A3 enzyme inhibition assays were performed as reported previously. Briefly, 500 ng/100 uL of ALDH1A1, ALDH3A1, and ALDH1A3 were treated with 500 nM concentration of the tested compounds and incubated for 15 min followed by the addition of reaction mixture (substrate + Substrate mixture). […] The absorbance was measured at 450 nm. [Absorbance Control–Absorbance treated/Absorbance Control]100 was used to compute the percentage of inhibition.

[7] = target: T2, ALDH3A1 (Homo sapiens, UniProt P30838); assay: ALDH isoform-specific enzyme inhibition assay, ALDH3A1; format: biochemical; details: 500 nM, Acetaldehyde (Substrate)
T2 construct: purchased R&D systems
T2 sequence (P30838 1-453): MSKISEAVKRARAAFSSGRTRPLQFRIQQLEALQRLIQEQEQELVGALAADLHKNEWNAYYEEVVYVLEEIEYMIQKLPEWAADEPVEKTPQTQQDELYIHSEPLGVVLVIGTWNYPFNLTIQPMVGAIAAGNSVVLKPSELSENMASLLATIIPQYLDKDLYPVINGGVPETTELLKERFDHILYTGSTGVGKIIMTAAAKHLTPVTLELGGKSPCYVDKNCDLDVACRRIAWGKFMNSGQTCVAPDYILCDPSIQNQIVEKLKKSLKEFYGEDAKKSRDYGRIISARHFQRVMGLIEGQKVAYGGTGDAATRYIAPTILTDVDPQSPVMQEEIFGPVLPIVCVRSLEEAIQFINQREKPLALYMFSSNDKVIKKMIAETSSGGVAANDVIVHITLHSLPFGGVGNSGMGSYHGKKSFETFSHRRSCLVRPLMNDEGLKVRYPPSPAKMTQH
Protocol: as §2

[8] = system: SKOV-3, MiaPaCa-2, HCT-116, HEK-293, and FHC cell lines; assay: Cell viability assay (MTS), statements over the cell line panel; format: cell-based, human; details: for IC50: Homo sapiens
Protocol: as §1

[9] = Cell viability assay (MTS), statements over the cell line panel; format: cell-based, human; details: human; range or statement over all tested cell lines, 48 h MTS; read-out: IC50 / cytotoxicity against the tested cell lines
Protocol: as §1

[10] = system: UACC 903 cells; assay: ALDEFLUOR assay; format: cell-based, human; details: UACC 903 melanoma cells, 1 µM, 24 h
Protocol: Aldehyde dehydrogenase (ALDH) activity within human melanoma cells was assessed by utilizing the ALDEFLUOR Kit from […] Technologies. […] Post-treatment, cells were washed with PBS, and the ALDEFLUOR assay was performed following the manufacturer’s protocol, employing DEAB as a negative control. ALDH percentages were determined using a BD LSRFortessa flow cytometer (San Jose, CA, USA).

[11] = system: HCT-116 cells; assay: Apoptosis assay, Muse Caspase-3/7 7-AAD; format: cell-based, human; details: HCT-116, 3 µM, 24 h, relative to KS100
Protocol: (§3) The apoptosis assays were carried out following the manufacturer’s instructions using the Muse Caspase-3/7 assay kit and Annexin V/7-AAD kit (Luminex Corp., TX, US). In a 6-well plate, the cells were seeded at a density of 1X105 cells/well. The cells were treated with 3 µM of the compounds following a 24 h incubation period. The cells were cultured for 48 h (Annexin V/7-AAD) as opposed to 24 h (Caspase-3/7 test). Cell Dissociation buffer, an enzyme-free solution, was used to harvest the cells at the end of the treatment period. The samples were then given the appropriate dye treatments following the manufacturer’s instructions.

[12] = system: HCT-116 cells; assay: Apoptosis assay, Annexin V/7-AAD; format: cell-based, human; details: HCT-116, 3 µM, 48 h, relative to KS100
Protocol: as §3

[13] = system: HCT-116 cells; assay: ROS generation (Muse Oxidative Stress Kit); format: cell-based, human; details: HCT-116, 3 µM, 24 h, relative to KS100
Protocol: The Muse® Oxidative Stress Kit (Luminex Corp., Austin, TX, USA) was used to assess the generation of ROS in the HCT-116 cells after the treatment with the compounds. In a 6-well plate, the cells were seeded at a density of 1 × 10^5 cells/well. After 24 h incubation, the cells were treated with the respective compounds with or without 5 mM of N-acetylcysteine (NAC) in the serum-enriched medium for 24 h. At the end of the treatment duration, the cells were harvested, and 10 μL of cells in suspension was added into each tube. Furthermore, 190 μL of Muse Oxidative Stress Reagent working solution was added to each tube. The samples were mixed thoroughly by pipetting up and down or vortexing at medium speed for 3 to 5 s. The samples were incubated for 30 min at 37 °C and analyzed using Muse Cell Analyzer.

[14] = system: γH2AX in HCT-116 cells; assay: Western blot for γH2AX; format: cell-based, human; details: HCT-116, 3 µM, 12 h
Protocol: Western blotting was performed as described previously. The antibodies used were procured from Cell Signaling Technologies. […] The protein was transferred to a 0.45 µm pore membrane (Immobilon®-P PVDF Membrane, EMD Millipore, USA). The membranes were further treated with the respective primary and secondary antibodies. The Western blot images are representative of three independent experiments.

[15] = system: HNSCC xenograft; details: injected intratumorally ref 29; cited from earlier work

Compound	IC50 [1] [µM]	IC50 [2] [µM]	IC50 [3] [µM]	IC50 [4] [µM]	IC50 [5] [µM]	inhibition at 0.5 µM [6] [%]	inhibition at 0.5 µM [7] [%]	IC50 ([8]; Pancreatic cancer cell, 48 h, read-out: IC50 in cancer cell lines) [µM]	melting point [°C]	IC50 at 48 h [9] [µM]	IC50 / cytotoxicity against the tested cell lines ([8]; range or statement over all tested cell lines, 48 h MTS)	inhibition of overall ALDH activity (ALDEFLUOR) [10]	more apoptotic cell population than KS100, caspase-3/7 7-AAD [11]	more apoptotic cell population than KS100, Annexin V/7-AAD [12]	more ROS than KS100 [13] [%]	γH2AX protein levels [14]	IC50 ([8]; HEK293, FHC and HEK-293, 48 h MTS, read-out: IC50 in normal and embryonic kidney cells) [µM]	IC50 ([8]; Pancreatic cancer cell, ovarian, colon, and pancreatic cancer cells, 48 h MTS, read-out: IC50 in cancer cell lines) [µM]	greater effectiveness than KS100 in targeting cancer cells ([8]; from MTS IC50 values) [times]	reduction of HNSCC xenograft development [15] [%]
Br.N=C(N)SCc1ccc(Cn2nc(Br)c3cccc(C(F)(F)F)c32)cc1 [Compound 17, 4-((3-Bromo-7-(trifluoromethyl)-1H-indazol-1-yl)methyl)benzyl carbamimidothioate hydrobromide]	> 50	> 50	> 50	> 50	> 50	10.99 ± 0.0015	-25.33 ± 0.05	> 50	235 to 237	–	–	–	–	–	–	–	–	–	–	–
COC(=O)/C=C/c1ccc(CN2C(=O)C(=O)c3cc(Br)cc(Br)c32)cc1 [Compound 2, Methyl (E)-3-(4-((5,7-dibromo-2,3-dioxoindolin-1-yl)methyl)phenyl)acrylate]	21.8 ± 2.4	22.3 ± 5.1	19.6 ± 3.3	24.1 ± 6.8	22.9 ± 3.3	–	–	–	–	> 20	–	–	–	–	–	–	–	–	–	–
O=Cc1ccc(CN2C(=O)C(=O)c3cc(Br)cc(Br)c32)cc1 [Compound 5, 4-((5,7-Dibromo-2,3-dioxoindolin-1-yl)methyl)benzaldehyde]	8.2 ± 1.1	5.4 ± 0.9	8.8 ± 2.3	7.5 ± 1.8	12.9 ± 3.3	24.82 ± 0.01	39.58 ± 0.05	–	205 to 207	–	less cytotoxic than KS100	–	–	–	–	–	–	–	–	–
O=C(OCc1ccc(CN2C(=O)C(=O)c3cc(Br)cc(Br)c32)cc1)c1ccco1 [Compound 4, 4-((5,7-Dibromo-2,3-dioxoindolin-1-yl)methyl)benzyl furan-2-carboxylate]	7.2 ± 1.3	7.1 ± 0.8	6.1 ± 1.2	5.3 ± 1.4	6.7 ± 1.9	28.26 ± 0.01	22.82 ± 0.05	–	132 to 134	–	–	–	–	–	–	–	–	–	–	–
O=C(OCc1ccc(CN2C(=O)C(=O)c3cc(Br)cc(Br)c32)cc1)c1ccc([N+](=O)[O-])o1 [Compound 3, 4-((5,7-Dibromo-2,3-dioxoindolin-1-yl)methyl)benzyl 5-nitrofuran-2-carboxylate]	2.2 ± 0.2	3.8 ± 0.4	2.1 ± 0.1	8.7 ± 1.1	7.1 ± 0.8	51.32 ± 0.01	51.87 ± 0.05	–	–	2.1 to 6.8	–	~ 2.5 fold	~ 12.8%	~ 13%	34.7	increased γH2AX protein levels	7.1 to 8.7	2.1 to 3.8	0.5 to 2	–
Br.N=C(N)SCc1ccc(Cn2nc(Br)c3cc(C(F)(F)F)ccc32)cc1 [Compound 16, 4-((3-Bromo-5-(trifluoromethyl)-1H-indazol-1-yl)methyl)benzyl carbamimidothioate hydrobromide]	4 ± 1.3	6.8 ± 1.4	4.9 ± 1.1	5.7 ± 1.3	7.1 ± 1.1	9.46 ± 0.01	-9.33 ± 0.04	–	213 to 215	2.1 to 6.8	–	–	–	–	–	–	–	–	–	–
Br.C=CCNC(=N)SCc1ccc(CN2C(=O)C(=O)c3cc(Br)cc(Br)c32)cc1 [Compound 1, 4-((5,7-Dibromo-2,3-dioxoindolin-1-yl)methyl)benzyl allylcarbamimidothioate hydrobromide]	4.8 ± 0.2	2.4 ± 1.1	4.7 ± 1.1	4.1 ± 0.8	2.9 ± 0.3	35.37 ± 0.01	30.59 ± 0.02	–	118 to 120	2.1 to 6.8	–	–	–	–	–	–	–	–	–	–
CC(C)CCn1c(CN2CCN(C(=O)C3CC3)CC2)nc2c1c(=O)n(C)c(=O)n2C [NCT-501]	–	–	–	–	–	–	–	–	–	–	–	–	–	–	–	–	–	–	–	78
